Here are results for two compounds from patent publication US10653717B2, “Antibiotic compositions” (priority 2016, dated 2020).

One assay concerns E. coli DHB4 oxyR^−. The assay is described as follows: microbe, parasite or virus in culture. The format is cell-based, Escherichia coli. The conditions noted are these: for MIC: read-out: MIC of ebselen in the presence of silver. As for the experimental part: Since Trx and GSH/Grx are major thiol-dependent systems, investigated were the effects of Ag^+ with ebselen in combination on Trx or GSH system-deficient E. coli redox mutants.
One major function of GSH and Trx systems is to scavenge ROS to keep cellular redox balance and protect against oxidative stress. The inhibition of the Trx system and depletion of GSH may responsible for the elevation of ROS.
Serial dilutions of ebselen and AgNO3 were added to the individual wells. The minimum inhibitory concentration (MIC) was determined after 24 h culture at 37° C.

The next assay deals with GSH. Description: GSH amount in treated E. coli cell extracts, GR-coupled DTNB reduction. The format is cell-based, Escherichia coli.
Another assay addresses reduced E. coli Trx1 (Escherichia coli, UniProt P0AA25). Conditions: excitation 280 nm.
Another assay deals with E. coli TrxR (Escherichia coli, UniProt P0A9P4). Type of assay: cell-based. Also noted: endogenous in cells; host or cells: E. coli DHB4. The conditions noted are these: Ag^+ or ebselen alone. The protocol: E. coli DHB4 cells were grown till the absorbance at OD600 nm, of 0.4 in LB medium, and the bacterial cells were treated with different dilutions of ebselen and AgNO3 for 10 min. Cells were harvested by centrifugation at 6,000 rpm for 5 min and thoroughly washed 3 times with PBS, then cells were re-suspended in lysis buffer (25 mM Tris.HCl, pH 7.5, 100 mM NaCl, 2.5 mM EDTA, 2.5 mM EGTA, 20 mM NaF, 1 mM Na3VO4, 20 mM sodium ß-glycerophosphate, 10 mM sodium pyrophosphate, 0.5% Triton X-100) containing protease inhibitor cocktail and lysed by sonication. The cell lysates were obtained by centrifugation at 13,000 rpm for 20 min and the protein concentration was measured by Lowry protein assay (Bio-Rad DC™).
E. coli DHB4 TrxR activity in cell extracts was measured by a DTNB reduction activity assay.
E. coli DHB4 cells were grown till the absorbance at OD600 nm of 0.4 in LB medium, and the bacterial cells were treated with 80 μM antibiotics and 5 μM AgNO3 for 10 and 60 min, respectively. The cultures treated with 80 μM ebselen and 5 μM AgNO3 were used as the positive control. […] The cell lysates were obtained by centrifugation at 13,000 rpm for 20 min and the protein concentrations were measured by the Lowry protein assay.
E. coli DHB4 TrxR activity in cell extracts was measured by a DTNB reduction activity assay^23.

For a further assay, the target named is T1, E. coli Trx (Escherichia coli, UniProt P0AA25).
T1 construct: endogenous in cells; host or cells: E. coli DHB4
Type of assay: cell-based. Conditions: Ag^+ or ebselen alone.

For a further assay, the system named is ECL-2: E. cloacae 2301#. As for the experimental part:
(§1) There are five most difficult-to-treat MDR Gram-negative pathogen species in the clinic, which are also typical GSH-positive bacteria: Klebsiella pneumonia, Acinetobacter baumannii, Pseudomonas aeruginosa, Enterobacter cloacae and Escherichia coli. Two strains of each species were isolated, overnight cultures were diluted 1:1000 times in LB medium, and treated with Ag^+ with a serial concentration of ebselen in combination for 16 h. […] Among these five species, A. baumannii and E. cloacae are very readily formed drug-resistant strains, which are needed to be treated by or the fourth-generation cephalosporin in the clinic, including imipenem, cefepime, and cefotaxime, etc.
(§2) Ten clinical isolated MDR Gram-negative (GSH-positive) strains were grown until an OD600 nm of 0.4 and were diluted 1:100 into 100 μl of LB medium in 96 micro-well plates. Serial dilutions of 100 μl ebselen and AgNO3 were added to the individual wells. […] The culture treated with 0.8% (v/v) DMSO was used as a control.

For the next assay, the system named is ECO-3: E. coli ZY-1. The protocol:
as §1, §2

Assay [1] concerns AB-1: Acinetobacter baumannii H#. As for the experimental part: as §1, §2
In assay [2] the test system is PA-2: P. aeruginosa 0009#. As for the experimental part:
as §1, §2

Assay [3] deals with ECL-1: Enterobacter cloacae 0431#. As for the experimental part:
as §1, §2

In assay [4] the test system is ECO-4: MG1655 (ATCC 700926). The protocol: as §1, §2
Another assay relates to AB-2: A. baumannii 0361#. The protocol:
as §1, §2

The subject of assay [5] is KP-2: K. pneumonia subsp. pneumonia 0322#. Description: MIC of silver with antibiotics on clinical isolated MDR Gram-negative bacteria. The format is cell-based, Klebsiella pneumonia. The conditions noted are these: antibiotic 4 μM. As for the experimental part: There are five clinically most difficult-to-treat MDR Gram-negative pathogen species: Klebsiella pneumonia, Acinetobacter baumannii, Pseudomonas aeruginosa, Enterobacter cloacae and Escherichia coli. One strain from each species was isolated, and overnight cultures were diluted 1:1000 times in LB medium, and treated with serial concentrations of Ag^+ and antibiotics in combinations for 24 h (Table 10).
Five clinical isolated MDR Gram-negative strains were grown until an OD600 nm of 0.4, and were diluted 1:1,000 into 100 μl LB medium in 96 micro-well plates. […] The cultures treated with the same serial dilutions of 100 μl ebselen and silver nitrate were used as the positive control.

The mark [6] stands for this setting: 5 μM Ag^+ alone or 20 μM ebselen alone, compared with control.

Each structure is given as a SMILES string. Like-named read-outs stand apart in the source and are kept apart here.

Chain of E. coli TrxR (P0A9P4 whole entry): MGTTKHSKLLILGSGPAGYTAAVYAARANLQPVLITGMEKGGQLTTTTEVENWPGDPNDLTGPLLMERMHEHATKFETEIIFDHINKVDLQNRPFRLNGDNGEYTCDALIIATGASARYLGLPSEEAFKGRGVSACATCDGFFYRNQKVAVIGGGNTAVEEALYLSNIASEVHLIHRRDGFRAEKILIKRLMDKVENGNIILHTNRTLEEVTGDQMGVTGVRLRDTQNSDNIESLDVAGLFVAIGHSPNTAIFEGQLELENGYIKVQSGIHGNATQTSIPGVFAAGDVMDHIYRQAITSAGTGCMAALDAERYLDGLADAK
Chain of reduced E. coli Trx1 (P0AA25 whole entry): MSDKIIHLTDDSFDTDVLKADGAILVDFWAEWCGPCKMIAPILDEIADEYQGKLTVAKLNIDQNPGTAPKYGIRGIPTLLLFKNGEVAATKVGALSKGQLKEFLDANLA
T1 sequence (P0AA25 2-109): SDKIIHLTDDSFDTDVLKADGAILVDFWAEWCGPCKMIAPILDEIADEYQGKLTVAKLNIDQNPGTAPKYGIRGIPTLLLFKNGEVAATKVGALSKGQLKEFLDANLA
Method for reduced E. coli Trx1: Pure recombinant 100 nM TrxR, and 5 μM Trx mixture were incubated with AgNO3 solution in the presence of 200 μM NADPH, and then their activities were detected by DTNB reduction assay. FIG. 4B is a fluorescent spectra of a complex between reduced E. coli 10 μM Trx1 with AgNO3. Reduced 10 μM E. coli Trx1 protein was incubated with a serial concentration of AgNO3 solution and the fluorescent spectra was detected with an excitation wavelength at 280 nm. Oxidized Trx1 (Trx-S2) was used as a control. […] After the treatment described in (B), Trx activity was assayed by a DTNB method in the presence of E. coli Trx1. […] Silver-inhibited E. coli Trx1 was passed through a desalting column to remove small molecules and then Trx activity was measured. E. coli Trx1 without the inhibition was used as a control.
Fluorescent Spectra of reduced E. coli Trx with Silver were recorded at 10 μM in a PerkinElmer Enspire multilabel recorder using an excitation at 280 nm.

Take `O=[N+]([O-])[O-].[Ag+]` [silver, silver nitrate]: the “MIC of silver in the presence of ebselen” value is 20 µM in the assay with E. coli DHB4 oxyR^− (Ebselen 0 μM, oxyR^−, 24 h); 5 µM in the assay on E. coli DHB4 oxyR^− (Ebselen 1 μM, oxyR^−, 24 h); 1.25 µM with E. coli DHB4 oxyR^− (Ebselen 2 μM, oxyR^−, 24 h); 0.625 µM in the assay on E. coli DHB4 oxyR^− (Ebselen 4 μM, oxyR^−, 24 h); 80 µM in the assay on ECL-2: E. cloacae 2301# (Ebselen 0 μM); 40 µM in the assay on ECL-2: E. cloacae 2301# (Ebselen 1 μM). In addition, the “MIC of silver in the presence of ebselen” value in the assay on ECL-2: E. cloacae 2301# (Ebselen 2 μM) amounted to 40 µM; in the assay with ECL-2: E. cloacae 2301# (Ebselen 4 μM) it was 10 µM; in the assay with ECO-3: E. coli ZY-1 (Ebselen 0 μM), 40 µM; in the assay with ECO-3: E. coli ZY-1 (Ebselen 1 μM), 40 µM; in the assay on ECO-3: E. coli ZY-1 (Ebselen 2 μM), 20 µM; in the assay on ECO-3: E. coli ZY-1 (Ebselen 4 μM), 10 µM. Also, the “MIC of silver in the presence of ebselen” value was 80 µM in [1] (Ebselen 0 μM); 80 µM in assay [1] (Ebselen 1 μM); 40 µM in [1] (Ebselen 2 μM); 10 µM in [1] (Ebselen 4 μM); 80 µM in assay [2] (Ebselen 0 μM); 80 µM in assay [2] (Ebselen 1 μM). The “MIC of silver in the presence of ebselen” value in [2] (Ebselen 2 μM) stood at 40 µM; in assay [2] (Ebselen 4 μM), 20 µM; in assay [3] (Ebselen 0 μM), 80 µM; in assay [3] (Ebselen 1 μM) it was 40 µM; in assay [3] (Ebselen 2 μM) it was 20 µM; in assay [3] (Ebselen 4 μM), 20 µM. In addition, the “MIC of silver in the presence of ebselen” value in assay [4] (Ebselen 0 μM) was determined as 40 µM; in assay [4] (Ebselen 1 μM), 20 µM; in assay [4] (Ebselen 2 μM), 10 µM; in [4] (Ebselen 4 μM) it was 5 µM; with AB-2: A. baumannii 0361# (Ebselen 0 μM), 80 µM; in the assay on AB-2: A. baumannii 0361# (Ebselen 1 μM), 80 µM. The “MIC of silver in the presence of ebselen” value is 40 µM with AB-2: A. baumannii 0361# (Ebselen 2 μM) and 20 µM in the assay on AB-2: A. baumannii 0361# (Ebselen 4 μM). Also, in the assay with GSH (setting [6]), the GSH levels result was “neither 5 μM Ag^+ nor 20 μM ebselen modulated GSH levels”. The “tryptophan fluorescence intensity of 10 μM Trx1” value at reduced E. coli Trx1 (1-10 μM Ag^+) is “increased the tryptophan fluorescence intensity”. In addition, the “fluorescent intensity of 10 μM Trx1” value at reduced E. coli Trx1 (20-100 μM Ag^+) was “decreased”. Besides, on E. coli TrxR, the “TrxR activities in cell extracts” value is reported as “not influenced”. Moreover, the “Trx activities in cell extracts” value at E. coli Trx is “not influenced”.

With `O=c1c2ccccc2[se]n1-c1ccccc1` [ebselen, 2-phenyl-1,2-benzisoselenazol-3(2H)-one], the MIC with E. coli DHB4 oxyR^− (Escherichia coli, 24 h, Silver 0 μM, oxyR^−, 24 h) turned out to be 40 µM; in the assay with E. coli DHB4 oxyR^− (Escherichia coli, 24 h, Silver 5 μM, oxyR^−, 24 h), 1 µM; in the assay on E. coli DHB4 oxyR^− (Escherichia coli, 24 h, Silver 10 μM, oxyR^−, 24 h) it was 0.5 µM; in the assay with E. coli DHB4 oxyR^− (Escherichia coli, 24 h), 4 µM; in the assay on E. coli DHB4 oxyR^− it was 2 µM. For the same compound, the GSH levels result in the assay with GSH (setting [6]) is “neither 5 μM Ag^+ nor 20 μM ebselen modulated GSH levels”; in the assay with GSH (ebselen alone at 80 and 40 μM), “reduced GSH levels”. Also, at E. coli TrxR, the “TrxR activities in cell extracts” value is listed as “not influenced”. Further, the “Trx activities in cell extracts” value at E. coli Trx is “not influenced”. Further, the “MIC of silver in the presence of different antibiotics” value in [5] stood at 40 µM.
